Each molecule was assayed against CBP (Homo sapiens (Human), UniProt Q92793) (assay: HTRF biochemical assay for CBP activity (TR-FRET, bromodomain)). Conditions: geometric mean, 10-point 3-fold dilution 33 μM to 1.7 nM, read-out: BROMO IC50 TRF TB CBP (μM gmean).
Format: binding
Procedure, shortened: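 IC50 derives from a 4-parameter logistic fit of % inhibition, calculated from the 520/490 nm TR-FRET ratio against DMSO and no-enzyme controls. Final compound levels spanned 33 μM to 1.7 nM (10 points, 3-fold), with CBP and peptide ligand in Hepes pH 7.5/GSH/BGG/BSA/Triton buffer, incubated at room temperature for varying times.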

Sequence of CBP (Q92793 1085-1192): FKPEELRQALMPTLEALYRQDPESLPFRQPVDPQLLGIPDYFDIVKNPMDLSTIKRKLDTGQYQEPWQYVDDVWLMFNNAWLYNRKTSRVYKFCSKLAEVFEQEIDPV

Row | Molecule | IC50 [µM]
1 | COC(=O)N1CCc2cc(CC#N)c3c(nc([C@H]4CC[C@H](C(=O)O)CC4)n3CCc3ccccc3)c2C1 [Compound 118] | 0.001 to 0.01
2 | COC(=O)N1CCc2ccc3c(nc([C@H]4CCC[C@H](C(=O)O)C4)n3C(C)Cc3ccccc3Cl)c2C1 (stereo in doubt) [Compound 19, (1S,3S)-3-{3-[(2R)-1-(2-chlorophenyl)propan-2-yl]-8-(methoxycarbonyl)-3H,6H,7H,8H,9H-imidazo[4,5-h]isoquinolin-2-yl}cyclohexane-1-carboxylic acid] | 0.001 to 0.01
3 | COC(=O)N1CCc2ccc3c(nc(N4CC[C@H](C(=O)O)C4)n3[C@@H](C)Cc3ccccc3)c2C1 [Compound 222] | 0.01 to 0.1
4 | COC(=O)N1CCc2ccc3c(nc([C@H]4CC[C@](C)(C(=O)O)CC4)n3[C@@H](C)Cn3cc(Cl)cn3)c2C1 [Compound 231] | 0.01 to 0.1
5 | COC(=O)N1CCc2ccc3c(nc(-c4ccccn4)n3[C@@H](C)Cc3ccccc3)c2C1 [Compound 159] | 0.001 to 0.01
6 | COC(=O)N1CCc2ccc3c(nc([C@@H]4CCC[C@@H](C(=O)O)C4)n3CC[C@H]3CC[C@@H](OC)CC3)c2C1 [Compound 215] | 0.01 to 0.1
7 | COC(=O)N1CCc2ccc3c(nc([C@H]4CC[C@H](C(=O)O)CC4)n3C3(Cc4ccccc4)COC3)c2C1 [Compound 271] | 0.01 to 0.1
8 | COC(=O)N1CCc2ccc3c(nc(C4CCCCC4)n3C[C@H](CC(=O)O)c3ccccc3C)c2C1 [Compound 115] | 0.001 to 0.01
9 | COC(=O)N1CCc2ccc3c(nc(C4CCCCC4)n3C[C@@H](C(=O)O)c3cc(F)ccc3OC)c2C1 (single isomer, unassigned) [Compound 11] | 0.001 to 0.01
10 | COC(=O)N1Cc2c(ccc3c2nc(C2CCCCC2)n3CCc2ccccc2)C[C@H]1C [Compound 232] | 0.01 to 0.1
11 | COC(=O)N1CCc2ccc3c(nc([C@H]4CC[C@H](C(=O)O)CC4)n3[C@H](C)C[C@@H]3CCCOC3)c2C1 [Compound 212] | 0.01 to 0.1
12 | COC(=O)N1CCc2ccc3c(nc([C@H]4CCC[C@H](C(=O)O)C4)n3C[C@H]3CC[C@H](OC)CC3)c2C1 [Compound 255] | 0.01 to 0.1
13 | COC[C@H](Cc1ccccc1)n1c2ccc3c(c2nc1[C@H]1CC[C@H](C(=O)O)CC1)CN(C(=O)OC)CC3 [Compound 299] | 0.1 to 1
14 | COC(=O)N1CCc2ccc3c(nc([C@H]4CC[C@@](C)(C(=O)O)CC4)n3[C@@H](C)Cn3cc(Cl)cn3)c2C1 [Compound 41] | 0.001 to 0.01
15 | COC(=O)N1CCc2ccc3c(nc(-c4ccccn4)n3[C@H](C)Cc3ccccc3)c2C1 [Compound 304] | 0.1 to 1
16 | COC(=O)N1CCc2ccc3c(nc([C@H]4CCC[C@@H](C(=O)O)C4)n3[C@@H](C)Cc3ccccc3)c2C1 (single isomer, unassigned) [Compound 13] | 0.001 to 0.01

Row | Molecule | IC50 [µM]
17 | COC(=O)N1CCc2ccc3c(nc([C@H]4CCCOC4)n3C[C@@H](C(=O)O)c3ccccc3)c2C1 [Compound 61] | 0.001 to 0.01
18 | COC(=O)N1CCc2c(C(=O)O)cc3c(nc(N4CCCCC4)n3C[C@H](C)c3ccccc3)c2C1 [Compound 247] | 0.01 to 0.1
19 | COC(=O)N1CCc2ccc3c(nc(C4CCCCC4)n3C[C@@H](C(=O)O)c3ccccc3)c2C1 [Compound 197] | 0.01 to 0.1
20 | COC(=O)N1CCc2ccc3c(nc(C4CCCCC4)n3C[C@H](CC(=O)O)c3ccc(F)c(F)c3)c2C1 (single isomer, unassigned) [Compound 189] | 0.01 to 0.1
21 | (1S,3S)-3-[3-[(2R)-1-(3,4-difluorophenyl)propan-2-yl]-8-(methoxycarbonyl)-3H,6H,7H,8H,9H-imidazo[4,5-h]isoquinolin-2-yl]cyclohexane-1-carboxylic acid [Compound 31] | 0.001 to 0.01
22 | COC(=O)N1CCc2ccc3c(nc(N4CCC[C@H](C(=O)O)C4)n3C[C@H](C)c3ccccc3)c2C1 [Compound 306] | 0.1 to 1
23 | COC(=O)N1CCc2ccc3c(nc(C4CCCCC4)n3CC(C(=O)O)C3CCCCC3)c2C1 (centres unmarked) [Compound 126] | 0.001 to 0.01
24 | COC(=O)N1CCc2ccc3c(nc(C4CCCCC4)n3C[C@H](C(=O)O)c3cc(F)c(C)cc3OC)c2C1 (single isomer, unassigned) [Compound 27] | 0.001 to 0.01
25 | COC(=O)N1CCc2ccc3c(nc(-c4ccc(C(C)(C)C(=O)O)cc4)n3[C@H](C)Cn3cc(Cl)cn3)c2C1 [Compound 327] | 0.1 to 1
26 | COC(=O)N1CCc2ccc3c(nc([C@H]4CC[C@H](C(=O)O)CC4)n3[C@@H](C)Cn3cc(Cl)cn3)c2C1 [Compound 85] | 0.001 to 0.01
27 | COC(=O)N1CCc2ccc3c(nc(N4CCC(C(=O)CO)CC4)n3[C@H](C)Cc3ccccc3)c2C1 [Compound 313] | 0.1 to 1
28 | COC(=O)N1CCc2c([C@@H]3CCOC3)cc3c(nc([C@H]4CC[C@H](C(=O)O)CC4)n3[C@@H](C)Cc3ccccc3)c2C1 [Compound 50] | 0.001 to 0.01
29 | COC(=O)N1CCc2ccc3c(nc(C4CCCCC4)n3CC[C@H]3CCCC[C@@H]3C(=O)O)c2C1 [Compound 252] | 0.01 to 0.1
30 | COC(=O)N1CCc2ccc3c(nc([C@H]4CC[C@](C)(C(=O)O)CC4)n3[C@H](C)Cc3ccccc3)c2C1 [Compound 333] | 0.1 to 1
31 | COC(=O)N1CCc2ccc3c(nc([C@H]4CC[C@H](OC)CC4)n3C[C@H](C(=O)O)c3ccccc3)c2C1 [Compound 1] | 0.001 to 0.01
32 | COC(=O)N1CCc2ccc3c(nc([C@H]4CC[C@H](C(=O)O)CC4)n3[C@H](C)Cn3ncc4ccccc43)c2C1 [Compound 311] | 0.1 to 1
